In patent US20190015400A1, “Antifungal Compositions” (priority 2017, published 2019):
Entries after “also recorded” stand apart in the source; their conditions may differ.

Experiments:
[1] = tested on: C. glabrata ATCC 2001 (strain H) biofilm; assay: Biofilm disruption assay (XTT, SMIC90), POS and EBA; assay type: cell-based, Candida glabrata; conditions: drug alone
Method: (§1) Biofilm disruption assays. […] Biofilm assays were performed in 96-well plates using XTT [2,3-bis(2-methoxy-4-nitro-5-sulfophenyl)-2H-tetrazolium-5-carboxanilide] to measure the viability of the biofilm as previously described. An overnight culture of yeast was grown at 35° C. in YEPD medium with shaking at 200 rpm. The overnight culture was diluted in RPMI 1640 medium to an OD600 between 0.12 and 0.15 to make a working stock. Working stock was transferred to the 96-well plate in 100 μL aliquots, leaving one column empty for the sterile control. The plates were incubated at 37° C. for 24 h to allow formation of the biofilm. The medium and planktonic cells from the plate were then aspirated. PBS was then used to wash any remaining planktonic cells off of the biofilm wells. 100 μL of PBS was aliquoted into wells and then removed. The wells were washed 3 times with PBS. […] Plates were incubated at 37° C. for 24 h. Finally, the plates were washed 3 times with PBS before adding 100 μL of XTT dye. The XTT was prepared by dissolving XTT at 0.5 mg/mL concentration in sterile PBS. Before adding to a plate, 1 μL of 10 mM menadione in acetone was added to 10 mL of the 0.5 mg/mL solution of XTT. After addition of XTT (containing menadione), the plates were incubated at 3 h at 37° C. in the dark. 80 μL of liquid from each well was transferred to a new plate. Plates were then read with a SpectraMax M5 plate reader (Molecular Devices, Sunnyvale, Calif., USA) for absorbance at 450 nm. For these experiments, we determined the sessile MIC (SMIC90), which is defined as the drug concentration required to inhibit the metabolic activity of biofilm by 90% compared to the growth control. The SMIC90 values were used to calculate the FICI as described above (TABLE 10). The plates used to determine the SMIC90 are provided in FIGS. 91A-H. Each assay was performed in duplicate.

[2] = tested on: C. albicans ATCC 10231 (strain B) biofilm; assay: as above; assay type: cell-based, Candida albicans; conditions: drug alone
Method: as §1

[3] = tested on: C. glabrata ATCC 2001 (strain H); assay: MIC and checkerboard assay, azoles + compounds 1-5; assay type: cell-based, Candida glabrata
Method: (§2) These compounds were serially diluted (two-fold dilutions) horizontally on the plate in 100 μL of RPMI medium. A diluted yeast culture (25 μL of a fungal stock with OD600 of 0.125 in 10 mL of RPMI medium, which achieves a final inoculum size of around 1-5×10^3 CFU/mL) was plated across the plate (100 μL per well), making a final volume of 200 μL total per well.
(§3) The appropriate range of concentrations for each compound was determined based on their corresponding MIC values against each fungal strain. The inoculum size for yeast and filamentous fungi were the same as in the MIC experiments described in section 2.2. The 96-well plates were incubated at 35° C. for 48 h for yeasts and 72 h for the Aspergillus strain before visual inspection for growth. […] The combinational effect of the two tested compounds were considered synergistic (abbreviated SYN) if FICI<0.5, additive (abbreviated ADD) if 0.5<FICI<4, and antagonistic if FICI>4 (TABLES 2-4).

[4] = tested on: C. albicans ATCC 64124 (strain F); assay: MIC and checkerboard assay, azoles + compounds 1-5; assay type: cell-based, Candida albicans; conditions: for MIC in combination: MIC of the labelled drug; for MICalone: drug alone; for fold reduction in MIC (combination vs alone): reduction for the labelled drug
Method: as §2, §3

[5] = tested on: C. albicans ATCC 10231 (strain B); assay: MIC and checkerboard assay, azoles + compounds 1-5; assay type: cell-based, Candida albicans
Method: as §2, §3

[6] = tested on: J774A.1 cells; assay: Mammalian cytotoxicity assay, azoles and compound 2
Text: (§4) David K. Orren (University of Kentucky, Lexington, Ky.) and Prof. David J. Feola (University of Kentucky, Lexington, Ky.), respectively.

[7] = tested on: C. albicans ATCC 64124 (strain F); assay: Time-kill assay, azoles + compound 2; assay type: cell-based, Candida albicans
Method: Each sample was incubated at 35° C. with shaking at 200 rpm. At various time points (0, 3, 6, 9, 12, and 24 h), 100 μL aliquots were taken from each sample and serially diluted (10-fold dilutions) in sterile ddH2O. 100 μL of each dilution was spread onto PDA plates and incubated at 35° C. for 48 h before colony counts were determined (FIGS. 2A-B). At the end of the 24-h experiment, 50 μL of 1 mM sterile resazurin solution was added to each sample for visual comparison of growth. Each experiment was performed in duplicate.

[8] = tested on: C. albicans ATCC 64124 (strain F) biofilm; assay: Biofilm disruption assay (XTT, SMIC99), azoles + compound 2; assay type: cell-based, Candida albicans; conditions: for FICI / Interp.: biofilm
Method: In order to investigate the synergistic effect of azoles and our compounds on inhibiting biofilm formation of C. albicans ATCC 64124 (strain F), we performed a biofilm disruption assay in a checkerboard setup and used XTT [2,3-bis(2-methoxy-4-nitro-5-sulfophenyl)-2H-tetrazolium-5-carboxanilide] reduction to examine the metabolic activity of the biofilm. Briefly, C. albicans ATCC 64124 (strain F) was grown overnight in YEPD broth at 35° C. The culture was then diluted to an OD600 of 0.12 (equivalent to 1×10^6 CFU/mL) and 100 μL was placed into each well of a 96-well plate. The cells were incubated at 37° C. for 24 h for growth. The following day, the spent medium containing planktonic cells was aspirated and each wells were carefully washed three times with sterile phosphate buffer saline (PBS). […] The negative control (medium only) and the positive control (biofilm plus medium) wells were also included in the same 96-well plate. The plates were then incubated at 37° C. statically for additional 24 h and then washed with sterile PBS. 100 μL of a XTT (0.5 mg/mL)/menadione (1 μM) solution was added to each well, covered with aluminum foil, and incubated for 2 h at 37° C. Then, 80 μL of the colored supernatant from each well was transferred to a new 96-well plate, and the absorption was read at OD490. The percent metabolic activity of the formed biofilm at various drug concentration combinations was calculated by dividing the metabolic activity of biofilm formed for that well by that of the biofilm formed in the growth control well (in the absence of any drug). For these experiments, the sessile MIC (SMIC99) was determined, which is defined as the drug concentration required to inhibit the metabolic activity of biofilm by 99% compared to the growth control. The assay for each combination was performed in duplicates.

[9] = tested on: C. albicans ATCC 90819 (strain G); assay: MIC and checkerboard assay, azoles + compounds 1-5; assay type: cell-based, Candida albicans
Method: as §2, §3

[10] = tested on: Aspergillus terreus ATCC MYA-3633 (strain I); assay: MIC and checkerboard assay, azoles + compounds 1-5; assay type: cell-based; conditions: in combination with POS
Method: as §2, §3

[11] = tested on: BEAS-2B cells; assay: Mammalian cytotoxicity assay, azoles and compound 2; assay type: cell-based, human
Text: as §4

[12] = tested on: HEK-293 cells; assay: as above; assay type: cell-based, human
Text: as §4

[13] = combination with POS at 8×MICcombo
[14] = combination with VOR at 8×MICcombo
[15] = azole 16 μg/mL + 8 μg/mL compound 2
[16] = azole at any concentration + 32 μg/mL compound 2
[17] = drug alone, up to highest concentration tested (azoles 16 μg/mL, compound 2 64 μg/mL)

C[C@@H]1[C@H](O)[C@@H](C)/C=C/C=C/C=C/C=C/C=C/C=C/C=C/[C@H](O[C@@H]2O[C@H](C)[C@@H](O)[C@H](N)[C@@H]2O)C[C@@H]2O[C@](O)(C[C@@H](O)C[C@@H](O)[C@H](O)CC[C@@H](O)C[C@@H](O)CC(=O)O[C@H]1C)C[C@H](O)[C@H]2C(=O)O [AMB, amphotericin B]
SMIC90 [1]: 4 µg/mL | SMIC90 [2]: >32 µg/mL

O=C(CCCN1CCC(O)(c2ccc(Br)cc2)CC1)c1ccccc1 [Compound 1]
combinational effect (FICI interpretation) ([3]; in combination with POS): partial synergy | combinational effect (FICI interpretation) ([3]; in combination with VOR): strong additive effect | combinational effect (FICI interpretation) ([4]; in combination with POS): synergy; also recorded: synergistic interactions | combinational effect (FICI interpretation) ([4]; in combination with VOR): partial synergy | combinational effect (FICI interpretation) ([5]; in combination with POS): partial synergy | combinational effect (FICI interpretation) ([5]; in combination with VOR): partial synergy

O=C(CCCN1CCC(O)(c2ccc(Br)cc2)CC1)c1ccc(F)cc1 [Compound 2, bromperidol]
cell survival ([6]; drug alone at 16 μg/mL): 72±14% | cell survival ([6]; drug alone at 32 μg/mL): 50±7% | cell survival ([6]; drug alone at 64 μg/mL): 30±4% | highest concentration at which no cytotoxicity was observed ([6]; drug alone, stated for all three cell lines (BEAS-2B, HEK-293, J774A.1), J774A.1 limiting): 8 µg/mL | combinational effect (FICI interpretation) ([3]; in combination with POS): partial synergy | combinational effect (FICI interpretation) ([3]; in combination with VOR): partial synergy | CFU/mL throughout 24 h [7, 13]: around 1×10^5 CFU/mL | time-kill effect [7, 13]: fungistatic effect | reduction in CFU/mL over 24 h [7, 14]: about 1 log10 unit | time-kill effect [7, 14]: fungistatic effect | increase in CFU/mL ([7]; drug alone at the concentration of the 8×MICcombo sample, 24 h): about 1 order of magnitude | FICI ([8]; in combination with POS): 1.02 | Interp. ([8]; in combination with POS): ADD* | FICI ([8]; in combination with VOR): 1.02 | Interp. ([8]; in combination with VOR): ADD* | SMIC alone (μg/mL) Cpd ([8]; compound alone, sessile cells): >128 µg/mL | SMIC combo (μg/mL) Cpd ([8]; compound in combination with POS): 128 µg/mL | SMIC combo (μg/mL) Cpd ([8]; compound in combination with VOR): 128 µg/mL | MIC in combination ([4]; combination compound 2 + ITC): 64 µg/mL | MIC in combination ([4]; combination compound 2 + POS): 4 µg/mL | MICalone [4]: 128 µg/mL | FICI ([4]; in combination with ITC): 0.56 | combinational effect (FICI interpretation) ([4]; in combination with ITC): partial synergy | combinational effect (FICI interpretation) ([4]; in combination with KTC): partial synergy | FICI ([4]; in combination with POS): 0.16 | combinational effect (FICI interpretation) ([4]; in combination with POS): synergy | combinational effect (FICI interpretation) ([4]; in combination with VOR): synergy | combinational effect (FICI interpretation) ([9]; in combination with POS): synergy | combinational effect (FICI interpretation) ([9]; in combination with VOR): synergy | combinational effect (FICI interpretation) ([5]; in combination with ITC): partial synergy | combinational effect (FICI interpretation) ([5]; in combination with KTC): partial synergy | combinational effect (FICI interpretation) ([5]; in combination with POS): partial synergy | combinational effect (FICI interpretation) ([5]; in combination with VOR): partial synergy | combinational effect (FICI interpretation) [10]: synergy; also recorded: synergistic

O=C(CCCN1CCC(O)(c2ccc(Br)cc2)CC1)c1ccc(Cl)cc1 [Compound 3]
combinational effect (FICI interpretation) ([4]; in combination with KTC): partial synergy | combinational effect (FICI interpretation) ([4]; in combination with POS): synergy; also recorded: synergistic interactions | combinational effect (FICI interpretation) ([4]; in combination with VOR): partial synergy; also recorded: synergistic interactions | combinational effect (FICI interpretation) ([5]; in combination with KTC): partial synergy | combinational effect (FICI interpretation) ([5]; in combination with POS): partial synergy | combinational effect (FICI interpretation) ([5]; in combination with VOR): partial synergy

O=C(CCCN1CCC(O)(c2ccc(Br)cc2)CC1)c1ccc(Br)cc1 [Compound 4]
combinational effect (FICI interpretation) ([3]; in combination with POS): synergistic; also recorded: strong synergy | combinational effect (FICI interpretation) ([4]; in combination with KTC): partial synergy | combinational effect (FICI interpretation) ([4]; in combination with POS): synergistic interactions | combinational effect (FICI interpretation) ([4]; in combination with VOR): Partial synergy | combinational effect (FICI interpretation) ([5]; in combination with KTC): partial synergy

COc1ccc(C(=O)CCCN2CCC(O)(c3ccc(Br)cc3)CC2)cc1 [Compound 5]
combinational effect (FICI interpretation) ([3]; in combination with POS): partial synergy | fold reduction in MIC (combination vs alone) ([4]; combination compound 5 + VOR): 16 fold | MICalone [4]: > 128 µg/mL | FICI ([4]; in combination with POS): 0.13 | combinational effect (FICI interpretation) ([4]; in combination with POS): synergistic interactions | combinational effect (FICI interpretation) ([4]; in combination with VOR): strong additive effect | combinational effect (FICI interpretation) ([5]; in combination with VOR): Partial synergy | combinational effect (FICI interpretation) [10]: synergistic

CCC(C)n1ncn(-c2ccc(N3CCN(c4ccc(OCC5COC(Cn6cncn6)(c6ccc(Cl)cc6Cl)O5)cc4)CC3)cc2)c1=O (centres unmarked) [ITC, itraconazole]
MIC in combination ([4]; combination compound 2 + ITC): 2 µg/mL | fold reduction in MIC (combination vs alone) ([4]; combination compound 2 + ITC): 16 fold

C[C@@H](c1ncncc1F)[C@](O)(Cn1cncn1)c1ccc(F)cc1F [VOR, voriconazole]
cytotoxicity [6, 15]: no toxicity | cytotoxicity ([6]; drug alone, any concentration tested (up to 16 μg/mL)): No cytotoxic effect | SMIC alone (μg/mL) Azole ([8]; azole alone, sessile cells): >32 µg/mL | SMIC combo (μg/mL) Azole ([8]; azole in combination with compound 2): 0.5 µg/mL | MIC in combination ([4]; combination compound 5 + VOR): 2 µg/mL | cytotoxicity [11, 15]: no toxicity | cytotoxicity [11, 16]: no toxicity | cytotoxicity [11, 17]: No cytotoxic effect | cytotoxicity [12, 15]: no toxicity | cytotoxicity [12, 16]: no toxicity | cytotoxicity [12, 17]: No cytotoxic effect
